The record followed here is ChEMBL document CHEMBL1201862, “PubChem BioAssay data set” (2004).

Where a name gives a salt, the structure may show the parent alone.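 Interpolation was linear, between the two tested concentrations surrounding the appropriate level; five concentrations were tested over 48 hours in 96-well plates. GI50: concentration for 50% inhibition of growth.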 Activity calls are given as the source filed them. No stated cut-off is given here; in the data, active = GI50 up to about 1.1 µM and inactive = higher. A value given as a limit tells only on which side of the number the result lay.

Holding throughout (assay): NCI anticancer screen, dose series, 48 h
The test system of experiment [1] is NCI/ADR-RES.
For experiment [2], the system named is CCRF-CEM.
Experiment [3] relates to UACC-257.
The test system of experiment [4] is NCI-H522.
Experiment [5] relates to OVCAR-8.
Experiment [6] relates to SW-620.
Experiment [7] concerns K562.
The test system of experiment [8] is HCC 2998.
Experiment [9] relates to DU-145.
Experiment [10] concerns UO-31.
Experiment [11] has as its system EKVX.
The subject of experiment [12] is LOX IMVI.
Experiment [13] deals with SF-539.
For experiment [14], the system named is OVCAR-3.
Experiment [15] relates to HT-29.
Experiment [16] deals with A549.
In experiment [17] the test system is UACC-62.
Experiment [18] has as its system COLO 205.
Experiment [19] has as its system U-251.
In experiment [20] the test system is Hs-578T.

For `O=C(/C=C/c1ccccc1)NNC(=O)c1c(Cl)c(Cl)c(Cl)c(Cl)c1-c1nc2ccccc2[nH]1`, the GI50 was 23.2 µM (inactive) in [1]; 27 µM (inactive) in experiment [2]; 27.7 µM (inactive) in [3]; 24.6 µM (inactive) in experiment [4]; 32 µM (inactive) in experiment [5]; 33.3 µM (inactive) in experiment [6]. The GI50 was 25.2 µM (inactive) in experiment [7]; 21.7 µM (inactive) in experiment [8]; 28.6 µM (inactive) in [9]; 19.5 µM (inactive) in experiment [10]; 17.6 µM (inactive) in experiment [11]; 27.1 µM (inactive) in [12]. In addition, the GI50 in experiment [13] was 22.3 µM (inactive); in [14], 28.4 µM (inactive); in experiment [15] it was 32.8 µM (inactive); in [16], 0.0966 µM (active); in [17], 15.7 µM (inactive); in experiment [18], 18 µM (inactive).

For the molecule `O=C(Nc1ccc(S(=O)(=O)Nc2ncccn2)cc1)c1c2ccccc2nc2ccccc12`, the GI50 in experiment [1] is > 100 µM (inactive); in experiment [2], > 10 µM (inactive); in experiment [3], > 100 µM (inactive); in [4], > 100 µM (inactive); in experiment [5] it was > 100 µM (inactive); in experiment [6] it was > 100 µM (inactive). The GI50 in experiment [7], in experiment [8], in experiment [9], in experiment [10], in [11] and in [12] was > 100 µM (inactive) each time. The GI50 in [13], in [19], in experiment [14], in experiment [15], in experiment [16] and in [17] was > 100 µM (inactive) throughout. The GI50 in experiment [18] is > 100 µM (inactive).

`C/C(=C\CO)CC/C=C(\C)CNc1ccc([N+](=O)[O-])cc1`: the GI50 in experiment [1] is 22 µM (inactive); in experiment [3], 21.6 µM (inactive); in experiment [4], 18 µM (inactive); in [5] it was 30.8 µM (inactive); in [6] it was 56.1 µM (inactive); in experiment [7] it was 15 µM (inactive). The GI50 in [9] was 50.4 µM (inactive); in experiment [10] it was 7.98 µM (inactive); in experiment [20], 16.6 µM (inactive); in [11], 24.8 µM (inactive); in [12] it was 22.3 µM (inactive); in experiment [13], 28.6 µM (inactive). In addition, the GI50 was 23.7 µM (inactive) in experiment [19]; 17.4 µM (inactive) in experiment [14]; 27.4 µM (inactive) in experiment [15]; 34.2 µM (inactive) in experiment [16]; 27.5 µM (inactive) in experiment [17]; 36.6 µM (inactive) in experiment [18].

In the case of `Oc1c(N2CCOCC2)cc(-c2cc(N3CCOCC3)c(O)c3ccccc23)c2ccccc12`, the GI50 in experiment [1] was 3.13 µM (inactive); in experiment [2], 1.48 µM (inactive); in experiment [3], 2.29 µM (inactive); in experiment [4], 2.23 µM (inactive); in [5], 1.6 µM (inactive); in experiment [6] it was 2.04 µM (inactive). For the same molecule, the GI50 was 1.88 µM (inactive) in [7]; 2.04 µM (inactive) in [8]; 1.73 µM (inactive) in experiment [10]; 3.44 µM (inactive) in [20]; 11.7 µM (inactive) in experiment [11]; 1.77 µM (inactive) in [12]. For the same molecule, the GI50 is 2.09 µM (inactive) in [13]; 1.82 µM (inactive) in experiment [19]; 2.47 µM (inactive) in [14]; 2.16 µM (inactive) in experiment [15]; 2.26 µM (inactive) in experiment [16]; 2.13 µM (inactive) in experiment [17]. The GI50 in experiment [18] was 1.93 µM (inactive).

For the molecule `CCCCCCc1cc2cc(-c3csc(-c4ccc(OC)cc4)n3)c(=O)oc2cc1O`, the GI50 in experiment [2] is 22.6 µM (inactive); in experiment [3] it was 8.51 µM (inactive); in experiment [6] it was 6.61 µM (inactive); in experiment [7] it was 19.3 µM (inactive); in experiment [8] it was 15.3 µM (inactive); in [9], 11.7 µM (inactive). The GI50 was 6.7 µM (inactive) in [10]; 15.8 µM (inactive) in experiment [20]; 20.2 µM (inactive) in experiment [11]; 12.6 µM (inactive) in experiment [12]; 12.8 µM (inactive) in experiment [13]; 5.24 µM (inactive) in experiment [19]. For the same molecule, the GI50 was 96.2 µM (inactive) in experiment [15], 16.7 µM (inactive) in experiment [16], 6.55 µM (inactive) in experiment [17] and 51.8 µM (inactive) in [18].

For `COc1ccc(N(c2ccc(C#N)cc2)c2ccc(C#N)cc2)cc1`, the GI50 in experiment [2] is 3.07 µM (inactive); in experiment [3] it was > 100 µM (inactive); in experiment [4] it was 3.78 µM (inactive); in experiment [5] it was > 100 µM (inactive); in experiment [6], > 100 µM (inactive); in experiment [9], > 100 µM (inactive). Moreover, the GI50 was 22.2 µM (inactive) in [10]; > 100 µM (inactive) in [20]; > 100 µM (inactive) in experiment [11]; 69.8 µM (inactive) in experiment [12]; > 100 µM (inactive) in experiment [13]; > 100 µM (inactive) in [19]. Also, the GI50 in experiment [14] was 82.4 µM (inactive); in [15], 9.89 µM (inactive); in experiment [16], > 100 µM (inactive); in experiment [17], > 100 µM (inactive); in experiment [18], 31.9 µM (inactive).

Consider `C=C1c2nc3ccccc3n2C=C(c2ccccc2)N1c1ccccc1`, for which the GI50 in experiment [1] was 34 µM (inactive); in experiment [2] it was 53.3 µM (inactive); in experiment [3], 74.1 µM (inactive); in [4], 15.8 µM (inactive); in experiment [5], 37.8 µM (inactive); in experiment [6] it was 40.3 µM (inactive). In addition, the GI50 in experiment [7] is 34.5 µM (inactive); in [8], 12.5 µM (inactive); in experiment [9], > 100 µM (inactive); in [10], 25.7 µM (inactive); in experiment [11], > 100 µM (inactive); in experiment [12], 42.2 µM (inactive). Also, the GI50 in [13] was 43.6 µM (inactive); in experiment [19] it was 58.6 µM (inactive); in experiment [14], > 100 µM (inactive); in [16], 30.3 µM (inactive); in [17], 43.1 µM (inactive); in experiment [18] it was 52.5 µM (inactive).

Consider `CC(CN1c2ccccc2Sc2ccccc21)N(C)C` (stereo not given) [PROMETHAZINE HYDROCHLORIDE], for which the GI50 in [1] was 15.8 µM (inactive); in experiment [2], 20.3 µM (inactive); in experiment [3] it was 23.9 µM (inactive); in experiment [4] it was 19.8 µM (inactive); in experiment [5] it was 16.2 µM (inactive); in experiment [6], 23.6 µM (inactive). The GI50 in [7] is 17.3 µM (inactive); in experiment [8], 20.1 µM (inactive); in [9] it was 19.4 µM (inactive); in experiment [10], 17.9 µM (inactive); in experiment [11], 22.6 µM (inactive); in [12], 18.9 µM (inactive). In addition, the GI50 in experiment [13] was 19.1 µM (inactive); in [19], 14.2 µM (inactive); in experiment [14], 16.5 µM (inactive); in [15], 16.4 µM (inactive); in [16], 20 µM (inactive); in [17], 19 µM (inactive). Moreover, the GI50 in experiment [18] is 14.1 µM (inactive).

As for `N=C(N)NS(=O)(=O)c1ccc(NCc2c3ccccc3nc3ccccc23)cc1`, the GI50 was 0.0782 µM (active) in [2]; 14.5 µM (inactive) in experiment [3]; 2.28 µM (inactive) in experiment [4]; 3.78 µM (inactive) in experiment [5]; 1.59 µM (inactive) in [6]; 2.72 µM (inactive) in experiment [7]. Further, the GI50 in [8] was 7.38 µM (inactive); in [9] it was 1.83 µM (inactive); in [10] it was 18.6 µM (inactive); in [20] it was 1.5 µM (inactive); in [11], 10.4 µM (inactive); in experiment [12] it was 0.946 µM (active). Besides, the GI50 in experiment [13] was 0.483 µM (active); in [19] it was 0.354 µM (active); in experiment [14], 11.6 µM (inactive); in experiment [15] it was 33.3 µM (inactive); in experiment [16] it was 0.338 µM (active); in [17], 1.1 µM (active). Further, the GI50 in [18] is > 80.9 µM (inactive).

For the molecule `O=C1O/C(=C/c2ccccc2)C(c2ccccc2)=C1O`, the GI50 was 34.7 µM (inactive) in [1]; 29.7 µM (inactive) in experiment [2]; > 100 µM (inactive) in [3]; 65 µM (inactive) in experiment [4]; 60.1 µM (inactive) in experiment [5]; 43.7 µM (inactive) in experiment [6]. The GI50 in experiment [7] was 41.1 µM (inactive); in experiment [8] it was 41.3 µM (inactive); in experiment [9], 26 µM (inactive); in [10] it was 27 µM (inactive); in experiment [11], 39.2 µM (inactive); in experiment [12], 36.6 µM (inactive). The GI50 in [13] is 37.9 µM (inactive); in experiment [19] it was 31.3 µM (inactive); in experiment [14], 19.8 µM (inactive); in experiment [15], > 100 µM (inactive); in experiment [16], 33.3 µM (inactive); in experiment [17] it was 18.5 µM (inactive). For the same molecule, in experiment [18], the GI50 was > 100 µM (inactive).

`O=C(N/C(=C/c1ccc(Cl)cc1)c1nc2ccccc2c(=O)n1Nc1ccc([N+](=O)[O-])cc1[N+](=O)[O-])c1ccccc1`: the GI50 in experiment [1], in experiment [2], in [3], in [4], in experiment [5] and in experiment [6] was > 100 µM (inactive) each time. The GI50 in [7], in [8], in experiment [10], in [20], in experiment [12] and in experiment [13] was > 100 µM (inactive) in each case. The GI50 in experiment [19], in [14], in [15], in experiment [16], in [17] and in experiment [18] was > 100 µM (inactive) throughout.
